Results: PMC6102326, “Characterization of an Omega-3 Desaturase From Phytophthora parasitica and Application for Eicosapentaenoic Acid Production in Mortierella alpina” (Frontiers in Microbiology, 2018)

Target: T1, PPD17 (omega-3 desaturase; delta-17 desaturase) (Phytophthora nicotianae, UniProt V9F8I2)
T1 construct: gene F443_08426; full length, 361 residues, codon-optimized oPPD17 in pYES2/NT C (His-tagged), expressed in S. cerevisiae INVSc1; 4 predicted TM domains; C-terminal KTKST; His boxes HDAGH, HRHHH, HQIHH
T1 sequence (V9F8I2 1-361): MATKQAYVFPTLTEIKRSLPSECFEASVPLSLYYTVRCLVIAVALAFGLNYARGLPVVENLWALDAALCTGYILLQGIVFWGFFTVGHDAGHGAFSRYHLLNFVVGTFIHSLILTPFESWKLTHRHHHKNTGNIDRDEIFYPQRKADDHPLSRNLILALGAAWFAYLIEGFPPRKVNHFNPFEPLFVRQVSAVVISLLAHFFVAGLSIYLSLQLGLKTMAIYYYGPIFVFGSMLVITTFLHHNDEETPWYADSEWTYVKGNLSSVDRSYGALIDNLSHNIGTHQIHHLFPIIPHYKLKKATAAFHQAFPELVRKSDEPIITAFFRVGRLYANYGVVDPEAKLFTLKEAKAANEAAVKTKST
Assay: fatty acid feeding of yeast expressing PPD17, FAME analysis by GC-MS
Type: cell-based
Settings: free acid fed to culture, 0.2 mM, 12 °C and 28 °C; product eicosatetraenoic acid

`CCCCC/C=C\C/C=C\C/C=C\CCCCCCC(=O)O` [DGLA, dihomo-gamma-linolenic acid] was tested, and the “fatty acid feeding of yeast expressing PPD17, FAME analysis by GC-MS” value was “PPD17 had stronger substrate preference for C20-PUFA substrate AA and DGLA”.
